Where “and” joins values, the source holds several entries; their conditions need not be identical. Equal entries are not always repeated. Entries after “also recorded” stand apart in the source; their conditions may differ.
Experiments:
Type in all cases: in vivo, rat
aldosterone infused rats [1] = assay: Assay B aldosterone infusion model: heart histology (vascular inflammatory lesions, myocardial injury); conditions: saline-drinking, uni-nephrectomized rats, 4 weeks, eplerenone 100 mpk p.o.
Experimental: Assay B: In vivo Aldosterone Infusion Model Male Sprague Dawley rats (n=39; BW=250 g) […] Uni-nephrectomy performed during implantation of mini-pumps 2. Aldosterone (0.75 mg/hr, sc via aizet minipump) 2. […] 1. […] Sacrifice after 4 weeks. Hearts were harvested and divided by half through a transverse section at the mid-ventricles: The upper half was stored into formalin. The bottom part was snap-frozen in liquid nitrogen for biochemical analysis. Hearts were stained with hematoxylin&eosin and the collagen specific dye picro-sirius red and were analyzed for determination of interstitial collagen volume fraction and morphologic abnormalities (i.e. necrosis, vascular injury).

[2] = system: aldosterone + salt treated rats; assay: Assay C further aldosterone infusion study: body weight, ventricle weights, tibia length (myocardial hypertrophy); conditions: for Ventricular weights and ventricular weight to tibia length ratios (hypertrophy): 7, 14, 30 days
Text: Assay C: Further in vivo Aldosterone Infusion Study The procedure of Assay B was expanded upon in a further study. […] Myocardial tissue from animals in each treatment group was examined after 7, 14, or 30 days of treatment. […] Lesions were preceded by the expression and progressive upregulation of proinflammatory molecules. […] Male Sprague-Dawley rats, weighing 230 to 250 g, (Harlan Sprague-Dawley Industries, Indianapolis, Ind.) were housed in a room 12-hours light/12-hours dark daily cycle at an ambient temperature of 22±1° C. (n=96). Animals were allowed one week to adjust after arrival and had free access to TEKLAD 22/5 rodent diet (Harlan TEKLAD, Madison, Wis.) and tap water until the initiation of the experiment. Prior to surgery the animals were individually weighed and placed in one of the following groups: […] Potassium chloride supplementation was added to the saline solution in order to prevent the potential hypokalemia associated with aldosterone excess. […] Louis, Mo.) was inserted subcutaneously at the nape of the neck. Aldosterone was administered at a dose of […]. […] Animals were sacrificed from each group (n=8-13) after 7, 14, or 30 days of treatment. Animals to be sacrificed after 7 or 14 days of treatment were uninephrectomized and implanted with an Alzet minipump. Animals treated for 30 days were uninephrectomized, fitted for Alzet minipumps, and implanted with radio telemetry units (model#TA11PA-C40, Data Sciences Inc., St. Paul, Minn.) according to the following procedure. […] The surgery site was clipped, scrubbed with nolvasan, and sprayed with betadine. A rostral-caudal incision was made through the skin from the base of the rib cage to the pubic region using a #11 scalpel blade. A second incision was made through the muscles of the abdominal wall to expose the peritoneal cavity. […] Organs were carefully displaced with tissue retractors in order to expose the abdominal aorta. A 1.5 cm segment just rostral to the bifurcation of the abdominal aorta into the iliac arteries was cleared of excessive connective tissue and 4-0 silk was used to make an anchor adjacent to the aorta. A microvascular clip was then placed at both ends of the cleaned region to stop excessive blood flow. Using a bent, 21 gauge needle, the abdominal aorta was penetrated. The cannula of the radio telemetry unit was inserted and stabilized in the aorta using the 4-0 silk anchor. Organs were repositioned and the telemetry unit was placed over the organs. Using a non-interrupted suture pattern with 4-0 silk, the abdominal wall was closed, and the skin was subsequently closed using a 4-0 silk in an interrupted suture pattern. […] Post-operative care included monitoring the animals on a heating pad during recovery from anesthesia until sternal recumbency was reestablished. At the cessation of each experimental time point, the animals were anesthetized with pentobarbital (65 mg/kg i.p., Sigma Chemical, St. Louis Mo.) and weighed with a Mettler PM6000 balance (Mettler-Toledo, Inc., Hightstown, N.J.). The abdominal cavity was opened to expose the abdominal aorta. A 16-gauge needle was inserted into the abdominal aorta and the animal was exsanguinated into a 12 cc syringe. The blood sample was transferred immediately into glass serum collection tubes (Terumo Medical Corp., Elkton, Md.) for drug level analysis. The samples were placed on wet ice until sample collection was complete and centrifuged for 15 min at 3000 rev/min at 4° C. Following exsanguination, hearts and kidneys were isolated, removed, rinsed in cold phosphate-buffered saline, and blotted dry.

[3] = system: angiotensin II infused rats; assay: Assay A angiotensin II infusion model: heart histology (coronary vascular inflammation, myocardial injury); conditions: for Vascular inflammation and myocardial injury in the heart: angiotensin II infused rats, aldosterone given to adrenalectomized rats
osteopontin = assay: Assay A angiotensin II infusion model: osteopontin immunostaining of hearts; conditions: angiotensin II infused, saline-drinking rats; eplerenone 100 mpk
Experimental: Male Wistar rats (n—50, 10/group; BW=200 g)
2. Angiotensin 11 (25 ng/min, sc via aizet minipump)
Osteopontin (also known as early T-cell activation-1, Eta-1) is a secreted glycoprotein with pro-inflammatory characteristics that mediates chemoattraction, activation and migration of monocytes.

aldosterone infused rats [4] = assay: Assay B aldosterone infusion model: systolic blood pressure by radio-telemetry; conditions: saline-drinking, uni-nephrectomized Sprague Dawley rats, eplerenone 100 mpk p.o.
Experimental: Assay B: In vivo Aldosterone Infusion Model Male Sprague Dawley rats (n=39; BW=250 g) […] Uni-nephrectomy performed during implantation of mini-pumps 2. Aldosterone ([…], sc via aizet minipump) 2. […] 1. […] SBP measured by radio-telemetry probes inserted in the abdominal aorta Sacrifice after 4 weeks.

[5] = group Mean row of Table 9.11, 7 days of treatment
[6] = individual rats, 7 days of treatment, eplerenone 100 mg/kg/day, listed as Aldosterone + salt
[7] = mean ± SEM after 30 days of treatment, eplerenone 100 mg/kg/day

| SMILES | Vascular inflammatory changes / myocardial injury (aldosterone infused rats [1]) | Ventricular weights and ventricular weight to tibia length ratios (hypertrophy) ([2]; eplerenone 100 mg/kg/day) | Final Body Weight [2, 5] [g] | Right Ventricle Weight/Tibia Length [2, 5] [mg/cm] | Left Ventricle Weight [2, 6] [mg] | Left Ventricle Weight/Tibia Length [2, 6] [mg/cm] | Right Ventricle Weight/Tibia Length [2, 6] | Left Ventricle Weight [2, 7] [mg] | Right Ventricle Weight [2, 7] [mg] | Right Ventricle Weight/Tibia Length [2, 7] [mg/cm] | Tibia Length [2, 7] [cm] | Vascular inflammation and myocardial injury in the heart [3] | Osteopontin expression in the heart (immunostaining) (osteopontin) | Systolic Blood Pressure (aldosterone infused rats [4]) | Right Ventricle Weight/Tibia Length ([2]; Table 9.13, 30-day protocol, eplerenone 100 mg/kg/day, individual rats, listed as Eplerenone + aldosterone + salt) [mg/cm] | Decrease in body weight induced by aldosterone+salt ([2]; day 30, eplerenone 100 mg/kg/day) | Final Body Weight ([2]; individual rats, 7 days of treatment, eplerenone 100 mg/kg/day, listed as Eplerenone + aldosterone + salt) | Left Ventricle Weight/Tibia Length [2, 7] [mg/cm] | Animals with vascular inflammatory lesions in the coronary arteries ([3]; out of ten animals per group, angiotensin II/salt, 4 weeks, eplerenone 100 mpk) |
| --- | --- | --- | --- | --- | --- | --- | --- | --- | --- | --- | --- | --- | --- | --- | --- | --- | --- | --- | --- |
| C[C@]12CCC(=O)C=C1CC[C@@H]1[C@@H]2[C@@H](O)C[C@]2(C=O)[C@@H](C(=O)CO)CC[C@@H]12 [aldosterone] | severe vascular inflammatory lesions | Significant left and right ventricular hypertrophy | 277 | 48 | 620 | 200 | 48 mg/cm and 49 mg/cm and 57 mg/cm and 47 mg/cm (2×) and 44 mg/cm and 41 mg/cm and 51 mg/cm and 55 mg/cm | 910 ± 29 | 192 ± 8 | 49 ± 2 | 3.9 ± 0.02 | restored the severe coronary and myocardial inflammation and injury | restored osteopontin expression | Systolic blood pressure increased | – | – | – | – | – |
| COC(=O)[C@@H]1CC2=CC(=O)CC[C@]2(C)[C@@]23O[C@@H]2C[C@@]2(C)[C@@H](CC[C@@]24CCC(=O)O4)[C@H]13 [eplerenone, Pregn-4-ene-7,21-dicarboxylic acid, 9,11-epoxy-17-hydroxy-3-oxo-, γ-lactone, methyl ester, (7α, 11α, 17β) -] | completely prevented the vascular inflammatory changes; also recorded: prevention by eplerenone of myocardial injury | did not impact absolute ventricular weights or ventricular weight to tibia length ratios | – | – | – | – | – | – | – | 51 ± 2 | – | prevention by eplerenone (epoxymexrenone) of vascular inflammation in the heart | prevented osteopontin expression | significantly reduced, but did not normalize blood pressure; also recorded: depression of this elevation | 50 | significantly attenuated | 306 g and 295 g (2×) and 277 g and 276 g | 240 ± 9 | only one of the ten |

From US20030162759A1, “Aldosterone blocker therapy to prevent or treat inflammation-related disorders” (priority 2000, published 2003)
